The subject of one data set is HepG2. As to the kind of experiment: Cytotoxicity against human HepG2 cells by CellTiterGlo assay. Format: cell-based.
Data set [1] has as its system Plasmodium berghei. As to the kind of experiment: Antiplasmodial activity against Plasmodium berghei infected in NMRI mouse assessed as mean survival time at 50 mg/kg, po administered at 4, 24, 48, 72 hrs post infection by Peter's test (reference value: 6 to 7 day). Format: functional.
Data set [2] deals with Plasmodium falciparum. Description: Antiplasmodial activity against multidrug-resistant asexual blood stages of Plasmodium falciparum Dd2 after 72 hrs by HRP2-based ELISA. Particulars: Dd2, 72 h. Format: functional.
The subject of data set [3] is Plasmodium berghei. As to the kind of experiment: Antiplasmodial activity against Plasmodium berghei infected in NMRI mouse assessed as reduction in parasitemia at 50 mg/kg, ip administered at 4, 24, 48, 72 hrs post infection measured on day 4 post infection by Peter's test relative to control. Format: functional. Further details: scale not given: the % may be the effect or the level left.

For data set [4], the system named is Plasmodium berghei. As to the kind of experiment: Antiplasmodial activity against Plasmodium berghei infected in NMRI mouse assessed as parasite-free mouse at 50 mg/kg, ip administered at 4, 24, 48, 72 hrs post infection measured on day 30 by Peter's test. Format: functional, organism-based.
Data set [5] has as its system Plasmodium berghei. Description: Antiplasmodial activity against Plasmodium berghei infected in NMRI mouse assessed as reduction in parasitemia at 50 mg/kg, po administered at 4, 24, 48, 72 hrs post infection measured on day 4 post infection by Peter's test relative to control. Format: functional. More on the design: scale not given: the % may be the effect or the level left.

For data set [6], the system named is Mus musculus. Description: Toxicity in NMRI mouse infected with Plasmodium berghei assessed as reduction in physical activity at 50 mg/kg, ip administered at 4, 24, 48, 72 hrs post infection. Format: organism-based. Particulars: in vivo.
In data set [7] the test system is Plasmodium falciparum. As to the kind of experiment: Antiplasmodial activity against chloroquine-sensitive asexual blood stages of Plasmodium falciparum 3D7 after 72 hrs by HRP2-based ELISA. Format: functional. Conditions: 3D7, 72 h.
Data set [8] concerns Plasmodium berghei. As to the kind of experiment: Antiplasmodial activity against Plasmodium berghei infected in NMRI mouse assessed as mean survival time at 50 mg/kg, ip administered at 4, 24, 48, 72 hrs post infection by Peter's test (reference value: 6 to 7 day). Format: functional.
In data set [9] the test system is Mus musculus. Description: Toxicity in NMRI mouse infected with Plasmodium berghei assessed as diarrhea at 50 mg/kg, ip administered at 4, 24, 48, 72 hrs post infection. Conditions: in vivo. Format: organism-based.
Data set [10] concerns Plasmodium berghei. As to the kind of experiment: Antiplasmodial activity against Plasmodium berghei infected in NMRI mouse assessed as parasite-free mouse at 50 mg/kg, po administered at 4, 24, 48, 72 hrs post infection measured on day 30 by Peter's test. Format: functional, organism-based.
The nature of data set [11]: Selectivity index, ratio of IC50 for human HepG2 cells to IC50 for chloroquine-sensitive asexual blood stages of Plasmodium falciparum 3D7. Format: toxicity. Conditions: read-out: Ratio IC50.

Active and inactive are the calls of the source. No cut-off for these calls is given here. Where only a bound is given, the exact number is not on record here.

With `CCN(CC)Cc1cc(/C=N/N=C(\N)CC(O)c2cc3ccccc3c3ccccc23)cc(CN(CC)CC)c1O` (centres undefined), the IC50 in the data set on HepG2 was 14300 nM; in the data set with Plasmodium falciparum [2] it was 3.3 nM; in the data set on Plasmodium falciparum [7] it was 1.5 nM. Moreover, the MST in the data set on Plasmodium berghei [1] and in the data set with Plasmodium berghei [8] was 11 days in each case. Further, the Activity with Plasmodium berghei [3] was 99.8%; in the data set with Plasmodium berghei [5] it was 96.7%; with Mus musculus [6], “Toxic”; in the data set with Mus musculus [9], “Toxic”. Also, the result in the data set with Plasmodium berghei [4] and in the data set on Plasmodium berghei [10] was inactive. In addition, in data set [11], the selectivity ratio stood at 9530.

`N/C(CC(O)c1cc2ccccc2c2ccccc12)=N\N=C1CCCCCC1` (centres undefined): the IC50 in the data set with HepG2 turned out to be 25400 nM; in the data set on Plasmodium falciparum [2], 140 nM; with Plasmodium falciparum [7], 180 nM. In addition, the outcome in the data set with Plasmodium berghei [10] was inactive. For the same compound, in data set [11], the selectivity ratio was determined as 139.

As to `CCN(CC)Cc1cc(/C=N/N=C(\N)CC(O)c2cc3ccccc3c3ccccc23)ccc1O` (centres undefined), the IC50 in the data set on HepG2 was 14300 nM; in the data set with Plasmodium falciparum [2] it was 3.4 nM; with Plasmodium falciparum [7], 0.97 nM. Besides, the MST in the data set with Plasmodium berghei [1] was determined as 28.2 days; in the data set on Plasmodium berghei [8], 30 days. Also, the Activity in the data set on Plasmodium berghei [3] is 99.7%; in the data set on Plasmodium berghei [5], 99.9%; in the data set on Mus musculus [6] it was “Non-Toxic”; in the data set on Mus musculus [9], “Non-Toxic”. Further, the result in the data set on Plasmodium berghei [10] was inactive. Besides, in data set [11], the selectivity ratio worked out at 14700.

Regarding `CCCCC(/C=N/N=C(\N)CC(O)c1cc2ccccc2c2ccccc12)CCCC` (centres undefined), the IC50 in the data set with HepG2 came out at 7600 nM; in the data set on Plasmodium falciparum [2] it was 92 nM; with Plasmodium falciparum [7], 60 nM. In addition, the selectivity ratio in [11] is 127.

For `N/C(CC(O)c1cc2ccccc2c2ccccc12)=N\N=C\c1ccc(O)c(CN2CCOCC2)c1` (centres undefined), the IC50 in the data set on HepG2 worked out at 3700 nM; with Plasmodium falciparum [2], 44 nM; in the data set on Plasmodium falciparum [7], 29 nM. Also, the MST stood at 9.7 days in the data set on Plasmodium berghei [1] and 14 days in the data set with Plasmodium berghei [8]. For the same compound, the Activity in the data set on Plasmodium berghei [3] is on record as 91.3%; with Plasmodium berghei [5], 89.7%; in the data set with Mus musculus [6], “Non-Toxic”; with Mus musculus [9], “Non-Toxic”. For the same compound, the outcome with Plasmodium berghei [4] and in the data set with Plasmodium berghei [10] was inactive. In data set [11], the selectivity ratio worked out at 128.

Consider `N/C(CC(O)c1cc2ccccc2c2ccccc12)=N\N=C\c1ccc(F)cc1` (centres undefined), for which the IC50 was over 10000 nM with HepG2 and 1.14 nM in the data set on Plasmodium falciparum [2]. Besides, in [11], the selectivity ratio is over 1040.

In the case of `CN1CCN(Cc2cc(/C=N/N=C(\N)CC(O)c3cc4ccccc4c4ccccc34)ccc2O)CC1` (centres undefined), the figures for the 50% inhibitory concentration (IC50) in the data set on HepG2, in the data set with Plasmodium falciparum [2] and with Plasmodium falciparum [7] were 8400 nM, 9.2 nM and 5.2 nM, respectively. Besides, the MST with Plasmodium berghei [1] was 16 days; in the data set with Plasmodium berghei [8] it was 18 days. For the same compound, the Activity in the data set with Plasmodium berghei [3] is reported as 97.6%; in the data set on Plasmodium berghei [5] it was 98%; with Mus musculus [6] it was “Non-Toxic”; in the data set with Mus musculus [9] it was “Non-Toxic”. Also, the outcome with Plasmodium berghei [4] and in the data set on Plasmodium berghei [10] was inactive. For the same compound, the selectivity ratio in data set [11] stood at 1620.

Turning to `CCN(CC)Cc1cccc(/C=N/N=C(\N)CC(O)c2cc3ccccc3c3ccccc23)c1` (centres undefined), the IC50 with HepG2 was 16600 nM; in the data set with Plasmodium falciparum [2] it was 36 nM; in the data set on Plasmodium falciparum [7], 25 nM. Also, the outcome in the data set with Plasmodium berghei [10] was inactive. Besides, the selectivity ratio in data set [11] came to 664.

For the compound `CCCCC(CCCC)=N/N=C(\N)CC(O)c1cc2ccccc2c2ccccc12` (centres undefined), the values for the IC50 with HepG2, with Plasmodium falciparum [2] and with Plasmodium falciparum [7] were 8600 nM, 12 nM and 8.3 nM, respectively. Moreover, the Activity was 64.8% in the data set on Plasmodium berghei [3], under 40% in the data set on Plasmodium berghei [5], “Non-Toxic” with Mus musculus [6] and “Non-Toxic” in the data set on Mus musculus [9]. The result with Plasmodium berghei [4] and with Plasmodium berghei [10] was inactive. For the same compound, in the data set with Plasmodium berghei [8], the MST was found to be 7 days. Besides, the selectivity ratio in [11] worked out at 1040.

As for `N/C(CC(O)c1cc2ccccc2c2ccccc12)=N\N=C\C1CCCCC1` (centres undefined), the values for the IC50 with HepG2, in the data set with Plasmodium falciparum [2] and in the data set with Plasmodium falciparum [7] were 27400 nM, 720 nM and 330 nM, respectively. For the same compound, in [11], the selectivity ratio worked out at 83.
